Entries after “also recorded” stand apart in the source; their conditions may differ. Read-outs that look alike come from different tables or passages of the source.
How the values were obtained:
[1] = tested on: GPR35; assay: DMR desensitization / antagonism mode against GPR35 agonist-induced DMR in HT29 cells; format: cell-based, human
[2] = target: hERG channel (Homo sapiens, UniProt Q12809); assay: Automated patch clamp recording of hERG tail current (IonWorks); details: hERG tail current ratio post/pre-compound, 50 uM
[3] = target: T1, GPR35 (Homo sapiens, UniProt Q9HC97); assay: Ca2+ mobilization assay (Fluo-4) in HEK-GPR35-Gqo5 cells; format: cell-based; details: for Ca2+ moblization (HEK-GPR35-Gqo5): HEK293 cells co-expressing GPR35 and Gqo5, Fluo-4, compounds 10 μM
T1 construct: myc; expressed in transfected cells; host or cells: HEK293, transient co-transfection (Lipofectamine LTX)

[4] = HT29 cells pretreated with compound, then GPR35 agonist
[5] = HT29, zaprinast 400 nM, U73122, cytochalasin D, Y27632 10 micromolar, CTX 1 microgram/ml, PTX 100 nanogram/ml

T1 sequence (Q9HC97 whole entry): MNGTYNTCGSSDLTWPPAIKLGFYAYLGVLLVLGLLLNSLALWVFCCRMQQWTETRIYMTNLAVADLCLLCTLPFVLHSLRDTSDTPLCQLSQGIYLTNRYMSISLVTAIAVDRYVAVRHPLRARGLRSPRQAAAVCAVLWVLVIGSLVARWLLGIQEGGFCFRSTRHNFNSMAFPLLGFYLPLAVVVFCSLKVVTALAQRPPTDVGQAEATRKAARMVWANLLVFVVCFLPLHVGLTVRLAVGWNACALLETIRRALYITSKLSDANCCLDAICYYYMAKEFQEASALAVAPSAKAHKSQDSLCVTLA
Sequence of GPR35 (Q9HC97 whole entry): as above
Sequence of hERG channel (Q12809 whole entry): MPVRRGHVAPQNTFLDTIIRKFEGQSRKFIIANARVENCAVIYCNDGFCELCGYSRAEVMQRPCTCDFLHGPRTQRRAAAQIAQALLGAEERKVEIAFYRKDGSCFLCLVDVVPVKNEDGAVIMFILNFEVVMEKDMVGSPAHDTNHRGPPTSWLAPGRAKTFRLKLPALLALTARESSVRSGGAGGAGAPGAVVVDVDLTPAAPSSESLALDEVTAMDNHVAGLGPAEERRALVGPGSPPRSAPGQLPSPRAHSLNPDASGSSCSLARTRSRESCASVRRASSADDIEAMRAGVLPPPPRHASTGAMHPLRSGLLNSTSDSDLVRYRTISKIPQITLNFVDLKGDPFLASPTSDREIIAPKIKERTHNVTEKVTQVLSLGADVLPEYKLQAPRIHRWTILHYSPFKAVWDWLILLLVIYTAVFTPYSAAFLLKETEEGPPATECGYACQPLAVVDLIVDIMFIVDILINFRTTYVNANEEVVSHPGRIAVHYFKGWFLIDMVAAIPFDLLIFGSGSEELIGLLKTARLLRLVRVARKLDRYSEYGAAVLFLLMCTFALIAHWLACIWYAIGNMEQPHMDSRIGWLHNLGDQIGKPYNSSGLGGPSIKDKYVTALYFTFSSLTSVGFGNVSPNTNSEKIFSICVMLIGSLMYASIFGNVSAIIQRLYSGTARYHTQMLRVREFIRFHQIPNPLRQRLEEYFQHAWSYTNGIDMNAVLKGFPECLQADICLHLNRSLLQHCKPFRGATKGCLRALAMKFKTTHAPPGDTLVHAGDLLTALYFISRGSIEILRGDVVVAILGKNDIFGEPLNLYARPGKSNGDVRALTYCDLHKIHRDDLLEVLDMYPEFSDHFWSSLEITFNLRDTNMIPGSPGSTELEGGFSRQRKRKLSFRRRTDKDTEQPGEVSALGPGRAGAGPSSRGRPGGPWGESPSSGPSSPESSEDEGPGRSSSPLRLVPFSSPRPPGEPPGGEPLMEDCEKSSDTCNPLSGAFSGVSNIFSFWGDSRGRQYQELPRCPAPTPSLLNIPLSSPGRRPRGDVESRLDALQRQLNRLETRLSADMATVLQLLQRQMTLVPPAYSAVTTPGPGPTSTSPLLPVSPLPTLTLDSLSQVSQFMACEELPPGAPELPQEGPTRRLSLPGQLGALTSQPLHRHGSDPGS

Compound: N#CC(C#N)=C(N)/C(C#N)=C/c1ccc(O)cc1 [AG112]
- Desenstization to GPR35 agonist [1, 4]: desenstized

Compound: N#CC(C#N)=Cc1ccc([N+](=O)[O-])c(O)c1 [AG126]
- Desenstization to GPR35 agonist [1, 4]: desenstized
- Electrophysiology (HEK-hERG) [2]: inactive

Compound: N#CC(=Cc1ccc2[nH]ccc2c1)C(N)=C(C#N)C#N [AG370]
- Desenstization to GPR35 agonist [1, 4]: desenstized
- Electrophysiology (HEK-hERG) [2]: inactive

Compound: N#C/C(=C/c1ccc(O)c(O)c1)C(=O)NCc1ccccc1 [AG490]
- Desenstization to GPR35 agonist [1, 4]: desenstized

Compound: COc1cc(/C=C(\C#N)C(N)=O)cc(CSc2nc3ccccc3s2)c1O [AG825]
- Desenstization to GPR35 agonist [1, 4]: desenstized

Compound: CC(C)(C)c1cc(C=C(C#N)C#N)cc(Br)c1O [AG1024]
- Desenstization to GPR35 agonist [1, 4]: desenstized

Compound: N#CC(C#N)=Cc1cc(O)c(O)c([N+](=O)[O-])c1 [AG1288]
- Desenstization to GPR35 agonist [1, 4]: desenstized

Compound: CCCCc1ccc(C2(C)OC(=C(C#N)C#N)C(C#N)=C2C)cc1 (stereo not drawn) [Compound 01, 2-dicyanomethylene-3-cyano-4,5-dimethyl-5-[4′-n-butylphenyl]-2,5-dihydrofuran]
- Desenstization to GPR35 agonist [1, 4]: desenstized
- Electrophysiology (HEK-hERG) [2]: inactive
- Ca2+ moblization (HEK-GPR35-Gqo5) [3]: inactive

Compound: CC1=C(C#N)C(=C(C#N)C#N)OC1(C)c1ccc(F)cc1F (stereo not drawn) [Compound 02, 2-dicyanomethylene-3-cyano-4,5-dimethyl-5-[2′,4′-difluorophenyl]-2,5-dihydrofuran]
- Desenstization to GPR35 agonist [1, 4]: desenstized
- Electrophysiology (HEK-hERG) [2]: inactive
- Ca2+ moblization (HEK-GPR35-Gqo5) [3]: active

Compound: CC1=C(C#N)C(=C(C#N)C#N)OC12CCCCC2 [Compound 03, 2-dicyanomethylene-3-cyano-4-methyl-5-spiro-cyclohexyl-2,5-dihydrofuran]
- Desenstization to GPR35 agonist [1, 4]: desenstized
- Electrophysiology (HEK-hERG) [2]: inactive
- Ca2+ moblization (HEK-GPR35-Gqo5) [3]: inactive

Compound: CC1=C(C#N)C(=C(C#N)C#N)OC1(c1ccccc1)C(F)(F)F (stereo not drawn) [Compound 04, 2-dicyanomethylene-3-cyano-4-methyl-5-phenyl-5-perfluoromethyl-2,5-dihydrofuran]
- Desenstization to GPR35 agonist [1, 4]: desenstized
- Electrophysiology (HEK-hERG) [2]: activator
- Ca2+ moblization (HEK-GPR35-Gqo5) [3]: active

Compound: CC1=C(C#N)C(=C(C#N)C#N)OC12c1ccccc1-c1ccccc12 [Compound 05, 2-dicyanomethylene-3-cyano-4-methyl-5-spiro-fluorenylidine-2,5-dihydrofuran]
- Desenstization to GPR35 agonist [1, 4]: desenstized
- Electrophysiology (HEK-hERG) [2]: inactive
- Ca2+ moblization (HEK-GPR35-Gqo5) [3]: inactive

Compound: CC1=C(C#N)C(=C(C#N)C#N)OC1(C)c1ccc(Cl)c(Cl)c1Cl (stereo not drawn) [Compound 06, 2-dicyanomethylene-3-cyano-4,5-dimethyl-5-[2′,3′,4′-trichlorophenyl]-2,5-dihydrofuran]
- Desenstization to GPR35 agonist [1, 4]: desenstized
- Electrophysiology (HEK-hERG) [2]: inactive
- Ca2+ moblization (HEK-GPR35-Gqo5) [3]: inactive

Compound: CC1=C(C#N)C(=C(C#N)C#N)OC1(C)c1ccc(Cl)c(Cl)c1 (stereo not drawn) [Compound 07, 2-dicyanomethylene-3-cyano-4,5-dimethyl-5-[3′,4′-dichlorophenyl]-2,5-dihydrofuran]
- Desenstization to GPR35 agonist [1, 4]: desenstized
- Electrophysiology (HEK-hERG) [2]: inactive
- Ca2+ moblization (HEK-GPR35-Gqo5) [3]: active

Compound: CC1=C(C#N)C(=C(C#N)C(N)=C(C#N)C#N)OC1(C)C [Compound 08, 2-cyano-2-(1-amino-2,2-dicyanovinyl)methylene-3-cyano-4,5,5-trimethyl-2,5-dihydrofuran]
- Desenstization to GPR35 agonist [1, 4]: desenstized
- Electrophysiology (HEK-hERG) [2]: inactive
- Ca2+ moblization (HEK-GPR35-Gqo5) [3]: active

Compound: CC1=C(C#N)C(=C(C#N)C#N)OC1(C)c1c(F)c(F)c(F)c(F)c1F (stereo not drawn) [Compound 09, 2-dicyanomethylene-3-cyano-4,5-dimethyl-5-[2′3′4′5′6′-pentafluorophenyl]-2,5-dihydrofuran]
- Desenstization to GPR35 agonist [1, 4]: desenstized
- Electrophysiology (HEK-hERG) [2]: inactive
- Ca2+ moblization (HEK-GPR35-Gqo5) [3]: active

Compound: CC1=C(C#N)C(=C(C#N)C#N)OC1(C)C [Compound 10, 2-dicyanomethylene-3-cyano-4,5,5-trimethyl-2,5-dihydrofuran]
- Desenstization to GPR35 agonist [1, 4]: desenstized
- Electrophysiology (HEK-hERG) [2]: inactive
- Ca2+ moblization (HEK-GPR35-Gqo5) [3]: active

Compound: O=C(O)c1cc2sccc2s1 [Compound 11, thieno[3,2-b]thiophene-2-carboxylic acid]
- Desenstization to GPR35 agonist [1, 4]: desenstized
- Electrophysiology (HEK-hERG) [2]: inactive
- Ca2+ moblization (HEK-GPR35-Gqo5) [3]: inactive

Compound: Cc1c(C(=O)O)sc2ccsc12 [Compound 12, 3-methyl-thieno[3,2-b]thiophene-2-carboxylic acid]
- Desenstization to GPR35 agonist [1, 4]: desenstized
- Electrophysiology (HEK-hERG) [2]: inactive
- Ca2+ moblization (HEK-GPR35-Gqo5) [3]: active

Compound: CCCCCCc1csc2cc(C(=O)O)sc12 [Compound 14, 6-hexyl-thieno[3,2-b]thiophene-2-carboxylic acid]
- Desenstization to GPR35 agonist [1, 4]: desenstized
- Electrophysiology (HEK-hERG) [2]: blocker
- Ca2+ moblization (HEK-GPR35-Gqo5) [3]: active

Compound: CCCCCCCCCCC(=O)c1sc2c(Br)csc2c1Br [Compound 15, 3,6-dibromo-thieno[3,2-b]thiophene-2-undecanone]
- Electrophysiology (HEK-hERG) [2]: inactive

Compound: CCCCCCCCCCCc1c(C(=O)O)sc2c(Br)csc12 [Compound 16, 3-n-undecyl-6-bromo-thieno[3,2-b]thiophene-2-carboxylic acid]
- Desenstization to GPR35 agonist [1]: desenstized
- Electrophysiology (HEK-hERG) [2]: inactive

Compound: CCCCCCCCCCCCCc1c(C(=O)O)sc2c(Br)csc12 [Compound 17, 3-n-tridecyl-6-bromo-thieno[3,2-b]thiophene-2-carboxylic acid]
- Desenstization to GPR35 agonist [1]: desenstized
- Electrophysiology (HEK-hERG) [2]: activator

Compound: CCCCCCCCCCc1c(C(=O)O)sc2c(Br)csc12 [Compound 18, 3-n-decyl-6-bromo-thieno[3,2-b]thiophene-2-carboxylic acid]
- Desenstization to GPR35 agonist [1, 4]: desenstized
- Electrophysiology (HEK-hERG) [2]: activator

Compound: CCCCCCCCCCCCCCCc1c(C(=O)O)sc2c(Br)csc12 [Compound 19, 3-n-pentadecyl-6-bromo-thieno[3,2-b]thiophene-2-carboxylic acid]
- Desenstization to GPR35 agonist [1, 4]: desenstized
- Electrophysiology (HEK-hERG) [2]: activator

Compound: CCCCCCCCc1c(C(=O)O)sc2c(Br)csc12 [Compound 21, 3-n-octyl-6-bromo-thieno[3,2-b]thiophene-2-carboxylic acid]
- Desenstization to GPR35 agonist [1, 4]: desenstized
- Electrophysiology (HEK-hERG) [2]: activator
- Ca2+ moblization (HEK-GPR35-Gqo5) [3]: active

Compound: Cc1csc2c1sc1cc(C(=O)O)sc12 [Compound 22, 5-methyl-dithieno[3,2-b:2′,3′-d]thiophene-2-carboxylic acid]
- Desenstization to GPR35 agonist [1, 4]: desenstized
- Electrophysiology (HEK-hERG) [2]: inactive
- Ca2+ moblization (HEK-GPR35-Gqo5) [3]: inactive

Compound: CCOC(=O)c1cc2sc3cc(C(=O)OCC)sc3c2s1 [Compound 23, diethyl dithieno[3,2-b:2′,3′-d]thiophene-2,6-dicarboxylate]
- Desenstization to GPR35 agonist [1, 4]: desenstized
- Electrophysiology (HEK-hERG) [2]: inactive
- Ca2+ moblization (HEK-GPR35-Gqo5) [3]: inactive

Compound: OCCN(CCO)c1ccc(C=Cc2cccs2)cc1 [Compound 24, N,N-bis(2-hydroxyethyl)-4-[2-(thiophene-2-yl)vinyl]aniline]
- Desenstization to GPR35 agonist [1, 4]: inactive
- Electrophysiology (HEK-hERG) [2]: inactive
- Ca2+ moblization (HEK-GPR35-Gqo5) [3]: inactive

Compound: COc1ccc2c(c1)CC[C@@H]1[C@@H]2CC[C@]2(C)[C@@H](NCCCCCCN3C(=O)C=CC3=O)CC[C@@H]12 [Compound U73122, U73122]
- effect of pathway agent pretreatment on the zaprinast DMR signal [1, 5]: insensitive
- effect of pathway agent on the 6-bromo-3-methylthieno[3,2-b]thiophene-2-carboxylic acid DMR ([1]; HT29 cells): insensitive

Compound: C[C@@H](N)[C@H]1CC[C@H](C(=O)Nc2ccncc2)CC1 [Compound Y27632, Y27632]
- effect of pathway agent pretreatment on the zaprinast DMR signal [1, 5]: partially attenuated
- effect of pathway agent on the 6-bromo-3-methylthieno[3,2-b]thiophene-2-carboxylic acid DMR ([1]; HT29 cells): partially attenuated

Compound: O=C(O)Cc1ccccc1Nc1c(Cl)cccc1Cl [Diclofenac]
- Desenstization to GPR35 agonist [1, 4]: desenstized
- Ca2+ moblization (HEK-GPR35-Gqo5) [3]: inactive

Compound: CCN(CC)C(=O)/C(C#N)=C/c1cc(O)c(O)c([N+](=O)[O-])c1 [Entacapone]
- Electrophysiology (HEK-hERG) [2]: inactive

Compound: NS(=O)(=O)c1cc(C(=O)O)c(NCc2ccco2)cc1Cl [Furosemdie]
- Desenstization to GPR35 agonist [1, 4]: desenstized
- Ca2+ moblization (HEK-GPR35-Gqo5) [3]: active
- Ca2+ mobilization signal in cells co-expressing GPR35 and Gqo5 ([3]; engineered HEK293, 10 μM): active

Compound: O=C(O)c1ccccc1Nc1ccccc1 [N-phenylanthranilic]
- Desenstization to GPR35 agonist [1, 4]: desenstized

Compound: CCNc1nc(C)nc2c1cnn2-c1ccc(C)cc1 [NSC1619]
- Desenstization to GPR35 agonist [1, 4]: inactive
- Electrophysiology (HEK-hERG) [2]: activator

Compound: O=C(O)c1ccccc1Nc1ccc(CCc2ccc(Cl)c(Cl)c2)cc1 [PD-118057]
- Desenstization to GPR35 agonist [1, 4]: desenstized
- Electrophysiology (HEK-hERG) [2]: activator

Compound: N#CC(C#N)=Cc1ccc(O)c(O)c1 [Tyrphostin 23]
- Desenstization to GPR35 agonist [1, 4]: desenstized

Compound: N#CC(C#N)=Cc1cc(O)c(O)c(O)c1 [Tyrphostin 25]
- Desenstization to GPR35 agonist [1, 4]: desenstized
- Electrophysiology (HEK-hERG) [2]: inactive

Compound: C=C1[C@@H](C)[C@H]2[C@H](Cc3ccccc3)NC(=O)[C@]23[C@H](OC(C)=O)/C=C/[C@@](C)(O)C(=O)[C@@H](C)C/C=C/[C@H]3[C@@H]1O [cytochalasin D]
- effect of pathway agent pretreatment on the zaprinast DMR signal [1, 5]: completely attenuated; also recorded: completely block
- effect of pathway agent on the 6-bromo-3-methylthieno[3,2-b]thiophene-2-carboxylic acid DMR ([1]; HT29 cells): blocked

Compound: Pertussis toxin
- effect of pathway agent pretreatment on the zaprinast DMR signal [1, 5]: insensitive
- effect of pathway agent on the 6-bromo-3-methylthieno[3,2-b]thiophene-2-carboxylic acid DMR ([1]; HT29 cells): insensitive

Compound: cholera toxin
- effect of pathway agent on the 6-bromo-3-methylthieno[3,2-b]thiophene-2-carboxylic acid DMR [1]: insensitive
- effect of pathway agent pretreatment on the zaprinast DMR signal [1]: insensitive

Reference: patent US20120022116A1, “COMPOSITIONS AND METHODS FOR THE TREATMENT OF PATHOLOGICAL CONDITION(S) RELATED TO GPR35 AND/OR GPR35-HERG COMPLEX” (priority 2010, published 2012)
